Values quoted from earlier work, collected in patent US11980686B1, “Agomelatine oral transmucosal film” (Xiamen LP Pharmaceutical Co., Ltd., priority 2023, dated 2024).

Details: oral tablet

COc1ccc2cccc(CCNC(C)=O)c2c1 [agomelatine, Agomelatine]
Inter-individual variation (AUC): 104% | Intra-subject variation (AUC): 157%
